Test results as given in PubChem BioAssay (NCI).
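Protocol summary: plate cells (96-well), add compound at 5 concentrations, incubate 48 h, interpolate endpoints linearly. TGI: concentration producing complete growth inhibition.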

How the values were obtained:
Experiment in all cases: DTP human tumour cell line panel, 48 h
786-0 renal = test system: 786-0 renal
A498 renal = test system: A498 renal
A549 NSCLC = test system: A549 NSCLC
ACHN renal = test system: ACHN renal
CAKI-1 renal = test system: CAKI-1 renal
CCRF-CEM leukemia = test system: CCRF-CEM leukemia
COLO 205 colon = test system: COLO 205 colon
DLD-1 colon = test system: DLD-1 colon
DMS 114 small cell lung = test system: DMS 114 small cell lung
DMS 273 small cell lung = test system: DMS 273 small cell lung
EKVX NSCLC = test system: EKVX NSCLC
HCC-2998 colon = test system: HCC-2998 colon
HCT-116 colon = test system: HCT-116 colon
HCT-15 colon = test system: HCT-15 colon
HL-60(TB) leukemia = test system: HL-60(TB) leukemia
HOP-18 NSCLC = test system: HOP-18 NSCLC
HOP-62 NSCLC = test system: HOP-62 NSCLC
HOP-92 NSCLC = test system: HOP-92 NSCLC
HT29 colon = test system: HT29 colon
IGROV1 ovarian = test system: IGROV1 ovarian
K-562 leukemia = test system: K-562 leukemia
KM12 colon = test system: KM12 colon
KM20L2 colon = test system: KM20L2 colon
LOX IMVI melanoma = test system: LOX IMVI melanoma
LXFL 529 NSCLC = test system: LXFL 529 NSCLC
M14 melanoma = test system: M14 melanoma
M19-MEL melanoma = test system: M19-MEL melanoma
MALME-3M melanoma = test system: MALME-3M melanoma
MOLT-4 leukemia = test system: MOLT-4 leukemia
NCI-H226 lung = test system: NCI-H226 lung
NCI-H23 lung = test system: NCI-H23 lung
NCI-H460 lung = test system: NCI-H460 lung
NCI-H522 lung = test system: NCI-H522 lung
OVCAR-3 ovarian = test system: OVCAR-3 ovarian
OVCAR-4 ovarian = test system: OVCAR-4 ovarian
OVCAR-5 ovarian = test system: OVCAR-5 ovarian
OVCAR-8 ovarian = test system: OVCAR-8 ovarian
RPMI-8226 leukemia = test system: RPMI-8226 leukemia
RXF 393 renal = test system: RXF 393 renal
RXF-631 renal = test system: RXF-631 renal
SF-268 CNS = test system: SF-268 CNS
SF-295 CNS = test system: SF-295 CNS
SF-539 CNS = test system: SF-539 CNS
SK-MEL-2 melanoma = test system: SK-MEL-2 melanoma
SK-MEL-28 melanoma = test system: SK-MEL-28 melanoma
SK-MEL-5 melanoma = test system: SK-MEL-5 melanoma
SK-OV-3 ovarian = test system: SK-OV-3 ovarian
SN12C renal = test system: SN12C renal
SNB-19 CNS = test system: SNB-19 CNS
SNB-75 CNS = test system: SNB-75 CNS
SNB-78 CNS = test system: SNB-78 CNS
SR leukemia = test system: SR leukemia
SW-620 colon = test system: SW-620 colon
TK-10 renal = test system: TK-10 renal
U251 CNS = test system: U251 CNS
UACC-257 melanoma = test system: UACC-257 melanoma
UACC-62 melanoma = test system: UACC-62 melanoma
UO-31 renal = test system: UO-31 renal
XF 498 CNS = test system: XF 498 CNS

## COc1ccc(NCc2cc(OC)cc(OC)c2)cc1
786-0 renal
  TGI: > 100 µM
A498 renal
  TGI: > 100 µM
A549 NSCLC
  TGI: > 100 µM
ACHN renal
  TGI: > 100 µM
CAKI-1 renal
  TGI: > 100 µM
CCRF-CEM leukemia
  TGI: > 92.6 µM
COLO 205 colon
  TGI: 27.4 µM
DLD-1 colon
  TGI: > 100 µM
DMS 114 small cell lung
  TGI: > 100 µM
DMS 273 small cell lung
  TGI: > 70.4 µM
EKVX NSCLC
  TGI: > 100 µM
HCC-2998 colon
  TGI: 57.9 µM
HCT-116 colon
  TGI: 57.3 µM
HCT-15 colon
  TGI: > 100 µM
HL-60(TB) leukemia
  TGI: 32.9 µM
HOP-18 NSCLC
  TGI: > 100 µM
HOP-62 NSCLC
  TGI: > 100 µM
HOP-92 NSCLC
  TGI: > 100 µM
HT29 colon
  TGI: > 100 µM
IGROV1 ovarian
  TGI: > 100 µM
K-562 leukemia
  TGI: > 84.6 µM
KM12 colon
  TGI: > 64.9 µM
KM20L2 colon
  TGI: 38.1 µM
LOX IMVI melanoma
  TGI: > 100 µM
LXFL 529 NSCLC
  TGI: > 100 µM
M14 melanoma
  TGI: > 100 µM
M19-MEL melanoma
  TGI: > 100 µM
MALME-3M melanoma
  TGI: > 100 µM
MOLT-4 leukemia
  TGI: > 100 µM
NCI-H226 lung
  TGI: > 100 µM
NCI-H23 lung
  TGI: > 95.5 µM
NCI-H460 lung
  TGI: > 84.6 µM
NCI-H522 lung
  TGI: 56.7 µM
OVCAR-3 ovarian
  TGI: > 59.3 µM
OVCAR-4 ovarian
  TGI: 82.1 µM
OVCAR-5 ovarian
  TGI: 77.7 µM
OVCAR-8 ovarian
  TGI: > 100 µM
RPMI-8226 leukemia
  TGI: 61.6 µM
RXF 393 renal
  TGI: 69.8 µM
RXF-631 renal
  TGI: > 100 µM
SF-268 CNS
  TGI: > 91 µM
SF-295 CNS
  TGI: > 100 µM
SF-539 CNS
  TGI: 54.2 µM
SK-MEL-2 melanoma
  TGI: > 82.7 µM
SK-MEL-28 melanoma
  TGI: > 100 µM
SK-MEL-5 melanoma
  TGI: > 100 µM
SK-OV-3 ovarian
  TGI: > 95.5 µM
SN12C renal
  TGI: > 100 µM
SNB-19 CNS
  TGI: > 100 µM
SNB-75 CNS
  TGI: > 100 µM
SNB-78 CNS
  TGI: 61.8 µM
SR leukemia
  TGI: > 100 µM
SW-620 colon
  TGI: > 100 µM
TK-10 renal
  TGI: > 100 µM
U251 CNS
  TGI: > 85 µM
UACC-257 melanoma
  TGI: > 100 µM
UACC-62 melanoma
  TGI: > 100 µM
UO-31 renal
  TGI: > 91.8 µM
XF 498 CNS
  TGI: > 76.8 µM

## Brc1ccc2c(C3CN[C@@H](c4c[nH]c5cc(Br)ccc45)CN3)c[nH]c2c1 (stereo partly drawn)
786-0 renal
  TGI: 9.91 µM
A498 renal
  TGI: 9.36 µM
A549 NSCLC
  TGI: 9.02 µM
ACHN renal
  TGI: 12.6 µM
CAKI-1 renal
  TGI: 25.9 µM
CCRF-CEM leukemia
  TGI: 11.7 µM
COLO 205 colon
  TGI: 3.49 µM
DLD-1 colon
  TGI: 12.8 µM
DMS 114 small cell lung
  TGI: 5.14 µM
DMS 273 small cell lung
  TGI: 5.13 µM
EKVX NSCLC
  TGI: 21.9 µM
HCC-2998 colon
  TGI: 5.43 µM
HCT-116 colon
  TGI: 3.55 µM
HCT-15 colon
  TGI: 13.6 µM
HL-60(TB) leukemia
  TGI: 7.72 µM
HOP-18 NSCLC
  TGI: 24.6 µM
HOP-62 NSCLC
  TGI: 16.2 µM
HOP-92 NSCLC
  TGI: 9.29 µM
HT29 colon
  TGI: 9.52 µM
IGROV1 ovarian
  TGI: 23.6 µM
K-562 leukemia
  TGI: 9.4 µM
KM12 colon
  TGI: 3.47 µM
KM20L2 colon
  TGI: 4.96 µM
LOX IMVI melanoma
  TGI: 9.03 µM
LXFL 529 NSCLC
  TGI: 6.86 µM
M14 melanoma
  TGI: 9.6 µM
M19-MEL melanoma
  TGI: 19.4 µM
MALME-3M melanoma
  TGI: 26.5 µM
MOLT-4 leukemia
  TGI: 11 µM
NCI-H226 lung
  TGI: 7.96 µM
NCI-H23 lung
  TGI: 7.13 µM
NCI-H460 lung
  TGI: 3.85 µM
NCI-H522 lung
  TGI: 5.6 µM
OVCAR-3 ovarian
  TGI: 19.7 µM
OVCAR-4 ovarian
  TGI: 13.6 µM
OVCAR-5 ovarian
  TGI: 10.1 µM
OVCAR-8 ovarian
  TGI: 15.9 µM
RPMI-8226 leukemia
  TGI: 5.16 µM
RXF 393 renal
  TGI: 4.41 µM
RXF-631 renal
  TGI: 12.9 µM
SF-268 CNS
  TGI: 19.1 µM
SF-295 CNS
  TGI: 12.4 µM
SF-539 CNS
  TGI: 12.9 µM
SK-MEL-2 melanoma
  TGI: 10.9 µM
SK-MEL-28 melanoma
  TGI: 23.8 µM
SK-MEL-5 melanoma
  TGI: 14.3 µM
SK-OV-3 ovarian
  TGI: 16.6 µM
SN12C renal
  TGI: 17.7 µM
SNB-19 CNS
  TGI: 22.4 µM
SNB-75 CNS
  TGI: 31.7 µM
SNB-78 CNS
  TGI: 22.7 µM
SR leukemia
  TGI: 3.08 µM
SW-620 colon
  TGI: 9.05 µM
TK-10 renal
  TGI: 20.8 µM
U251 CNS
  TGI: 18.5 µM
UACC-257 melanoma
  TGI: 23.4 µM
UACC-62 melanoma
  TGI: 17.5 µM
UO-31 renal
  TGI: 18.1 µM
XF 498 CNS
  TGI: 18.7 µM
